Data on one substance can be found in patent publication EP0583821A1, “Atriopeptins, guanylate cyclase activators, and phosphodiesterase inhibitors as treatment for glaucoma, hydrocephalus and cerebral edema (cranial fluid volume dysfunction)” (THE GENERAL HOSPITAL CORPORATION, priority 1987, dated 1988).

This experiment concerns the target T1, guanylate cyclase (Oryctolagus cuniculus, UniProt G1TXB5).
T1 sequence (G1TXB5 28-1056): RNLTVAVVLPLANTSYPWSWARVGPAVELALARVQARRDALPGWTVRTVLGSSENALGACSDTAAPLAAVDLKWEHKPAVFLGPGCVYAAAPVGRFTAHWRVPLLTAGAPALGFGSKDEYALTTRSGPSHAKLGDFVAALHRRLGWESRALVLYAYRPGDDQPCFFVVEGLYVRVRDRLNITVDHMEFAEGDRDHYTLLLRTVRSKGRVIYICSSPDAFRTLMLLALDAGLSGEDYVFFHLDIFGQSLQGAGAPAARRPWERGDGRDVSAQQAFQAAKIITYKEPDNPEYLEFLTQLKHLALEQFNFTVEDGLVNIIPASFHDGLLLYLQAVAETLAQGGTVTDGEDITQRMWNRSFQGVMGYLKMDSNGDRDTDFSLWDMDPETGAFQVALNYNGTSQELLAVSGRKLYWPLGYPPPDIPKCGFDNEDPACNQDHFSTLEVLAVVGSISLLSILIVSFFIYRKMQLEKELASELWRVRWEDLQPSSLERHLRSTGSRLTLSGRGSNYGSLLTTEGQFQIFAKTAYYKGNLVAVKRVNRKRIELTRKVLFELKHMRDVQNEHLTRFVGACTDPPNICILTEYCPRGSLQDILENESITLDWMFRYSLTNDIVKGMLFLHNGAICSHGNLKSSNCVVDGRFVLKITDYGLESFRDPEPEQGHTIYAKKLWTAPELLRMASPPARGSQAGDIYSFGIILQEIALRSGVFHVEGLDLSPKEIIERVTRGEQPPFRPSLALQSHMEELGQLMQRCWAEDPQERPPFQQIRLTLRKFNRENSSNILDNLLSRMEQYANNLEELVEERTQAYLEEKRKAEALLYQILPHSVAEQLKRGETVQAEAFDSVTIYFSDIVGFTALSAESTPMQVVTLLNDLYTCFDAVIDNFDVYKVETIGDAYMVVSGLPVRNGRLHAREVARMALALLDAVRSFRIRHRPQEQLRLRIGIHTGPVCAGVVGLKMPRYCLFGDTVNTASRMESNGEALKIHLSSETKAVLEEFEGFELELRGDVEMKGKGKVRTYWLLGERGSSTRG
Nature of the experiment: Guanylate cyclase in membranes of ventral superior sagittal dural sinus (arachnoid villi). It counts as biochemical, pig or rabbit. Conditions: small stimulation only at high concentrations; 4 min. The procedure:
The effect of rANP on membrane-bound guanylate cyclase and adenylate cyclase activity in various brain-barrier tissues and tissue fractions from rabbit was compared with its activity in cerebrum and cerebellum. Guanylate cyclase was measured as the rate of cyclic GMP formation by modifications of the technique of Waldman et al., supra, incorporated herein by reference. Briefly, tissues were homogenized (10 mg wet weight per milliliter) in 50 mM tris-HCl, pH 8.0, 1 mM EDTA, 1 mM dithiothreitol, and 250 mM sucrose and centrifuged at 100,000g to obtain a P1 pellet. Reaction tubes contained (in 0.3 ml), 50 mM tris, pH 7.6, 6 mM MnCl₂, 0.5 mM 3-isobutyl, 1-methylxanthine (IBMX), 10 mM theophylline, 3 mM GTP, hormone (in 0.03 ml containing 2.5 mM ascorbic acid and 0.1% bovine serum albumin), and 0.06 ml of P1 fraction (40 to 60 ug of protein). The reaction (4 minutes at 30°C) was started by addition of GTP and terminated by addition of 0.3 ml of 150 mM sodium acetate (pH 4.0) and boiling for 3 minutes. Cyclic GMP formed was subsequently measured by radioimmunoassay as described in example 6, infra. Under these conditions, guanylate cyclase activity was linear with time and tissue concentration. Adenylate cyclase activity in P1 fractions was measured according to the method described by Nathanson, et al., Science; 204:843 (1979); Mol. Pharmacol. 18:199 (1980), see Figure 1C . […] Neurosci. […]

In the case of “Ser-Leu-Arg-Arg-atriopeptin III (APIII) [rANP 1-28]”, the Ka is given as above 1000 nM.
